# According to PubChem BioAssay AID179 (DTP/NCI, 2004):
# Activity calls are given as the source filed them.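 The calls were made as follows: active = compounds giving half or more protection of infected cells from virus-caused growth loss, again on retest; inactive = the rest.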
# System: CEM cells HIV-1 protection, formazan growth assay
# Test: NCI AIDS Antiviral Assay
# Settings: for IC50: measured here: growth of uninfected CEM cells
# Method in brief: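 Human CEM cells, uninfected and HIV-1-infected, exposed to five drug concentrations; growth measured by soluble formazan assay and scored as percent protection from infection, with protecting compounds retested.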
SMILES,EC50,IC50,outcome
CO[C@@]12[C@@H]3N[C@@H]3CN1C1=C(C(=O)C(N(C)c3ccc(O)cc3)=C(C)C1=O)[C@@H]2COC(N)=O,> 200 µM,1.35 µM,
C=C=C(C)CN(CC)CC,> 1580 µM,> 1580 µM,
Nc1nc(Cl)cc(OCC2(CO)CC(OCc3ccccc3)C2)n1 (stereo not drawn),> 200 µM,41.7 µM,
Cc1ccc(Nc2nc3nc[nH]c3c(=O)[nH]2)cc1CO,> 200 µM,> 200 µM,
O=C(NN1C(=O)CSC1c1ccco1)c1ccncc1 (stereo not drawn),> 200 µM,> 200 µM,
CCc1n[nH]c(=O)n1-n1c(C)ccc1C,> 200 µM,> 200 µM,
CC(C)CCC[C@@H](C)[C@H]1CC[C@H]2[C@@H]3CC[C@H]4C[C@@H](CCCC(c5ccc(O)c(C(=O)O)c5)c5ccc(O)c(C(=O)O)c5)CC[C@]4(C)[C@H]3CC[C@]12C,64.6 µM,> 100 µM,
O=C(c1ccccc1Cl)c1c(O)c2ccccc2oc1=O,> 200 µM,> 200 µM,
O=C1C=CC(=Nc2ccc3c(c2)Cc2ccccc2-3)O1,> 200 µM,32.4 µM,
COc1cc(O)c2c(=O)c(O)c(-c3ccc(O)c(O)c3)oc2c1,> 93.3 µM,47.9 µM,
NC1CC(=O)c2c(I)sc(I)c21 (stereo not drawn),> 200 µM,4.47 µM,
Cc1cc(NS(=O)(=O)c2ccc(N)cc2)no1,> 200 µM,> 200 µM,
COC(=O)c1cc(C(=CCCCCN=[N+]=[N-])c2cc(Cl)c(OC)c(C(=O)OC)c2)cc(Cl)c1OC,19.1 µM,> 200 µM,
CC(Nc1ccc(Cl)cc1)c1ccncc1 (stereo not drawn),> 200 µM,72.4 µM,
COc1c2c(cc3c1OCO3)[C@]13C=C[C@H](OC)C[C@H]1N(C2)CC3O (stereo partly drawn),> 126 µM,> 126 µM,
CCOC(=O)N/N=C(/N)Cc1ccc(Cl)cc1,> 200 µM,120 µM,
C=CC1CC[N-]CC1.[Cl][Cu][Cl],,,inactive
COc1ccc(C2SC(C)C(=O)N2c2nc(-c3nc(-c4ccc(Cl)cc4)cs3)cs2)cc1 (stereo not drawn),> 200 µM,> 100 µM,

SMILES,EC50,IC50,outcome
CCCC(=O)OC1C(C(O)CO)OC2OC(C)(C)OC21 (stereo not drawn),> 871 µM,> 871 µM,
O=S(=O)(F)c1ccc(Cl)cc1C[P+](c1ccccc1)(c1ccccc1)c1ccccc1,> 200 µM,87.1 µM,
N#C/C(=C\c1ccc(F)cc1)C(=O)O,> 263 µM,> 263 µM,
CCCC(=O)OC(C(Cl)(Cl)Cl)P(=O)(OC)OC (stereo not drawn),> 200 µM,30.9 µM,
CN(C)CCCOC(=O)C(c1ccccc1)C1(O)CCSCC1 (stereo not drawn),> 200 µM,> 200 µM,
CC(C)[Si](OC1=C(C(=O)Nc2ccccc2Cl)CCCCC1)(C(C)C)C(C)C,> 200 µM,70.8 µM,
COc1ccccc1N=Nc1c(-c2ccccc2)nn(C(=O)CC(=O)Nc2cccc(C)c2)c1-c1ccccc1,> 35.5 µM,20.9 µM,
CC(=O)N1C(=O)CC(c2ccccc2)Sc2ccccc21 (stereo not drawn),> 151 µM,> 151 µM,
CCCCCC/C=[N+](/[O-])CC1OC(n2ccc(=O)[nH]c2=O)C(O[Si](C)(C)C(C)(C)C)C1O[Si](C)(C)C(C)(C)C (stereo not drawn),> 200 µM,6.76 µM,
CN1N(c2ccccc2)C(=O)C2=NC=C(C(=O)c3ccccc3)C(=N)C21C (stereo not drawn),> 200 µM,> 200 µM,
CC(=O)O[C@H]1C#C/C=C\C#CC[C@@H]2C(=O)N[C@@H]12,> 20 µM,1.02 µM,
O=C(NC(=O)c1cn(CCNCCO)c(=O)[nH]c1=O)OCc1ccccc1,,,inactive
O=S(=O)(O)c1ccc(O)c(N=Nc2ccc(S(=O)(=O)c3ccc(N=Nc4cc(S(=O)(=O)O)ccc4O)cc3)cc2)c1,> 100 µM,> 100 µM,
COc1cccc2c1OC1(N3CCOCC3)CCCCC1C2C[N+](=O)[O-] (stereo not drawn),> 200 µM,> 200 µM,
COc1ccc(/C=N/n2c(=O)[nH]c3ccccc3c2=O)cc1,> 200 µM,> 200 µM,
Cc1ccc(/C(=C\C(=O)C(=O)NC23CC4CC(CC(C4)C2)C3)Sc2ccccc2)cc1,> 200 µM,117 µM,
C=CC(C)(C)c1cc(O)c2oc3c(O)cccc3c(=O)c2c1O,> 151 µM,37.2 µM,
